Results as given in patent US20100003289A1, “Controlled Release Complex Formulation For Oral Administration of Medicine For Diabetes and Method For The Preparation Thereof” (Hanmi Pharm, Co., Ltd., priority 2004, published 2010).

Experiment: Stability of glimepiride in solution as function of pH, Test Example 5
Format: physicochemical
Set-up: Rate constant (K): unit not given beside the values
Conditions: for Log K / Rate constant (K) / T50% (time taken for 50% disintegration of the drug, 0.693/K): room temperature
Experimental: In order to examine the stability of glimepiride in a solution as function of pH changes, only the glimepiride rapid-release portion of the formulation of Example 13 was separated, and dissolved in each of the solutions listed in Table 17. Each of the resulting solutions was kept at room temperature and the glimepiride contents thereof were measured at predetermined times.

[1] = pH 1.2, 1st solution of disintegrating-test in Korea pharmacopoeia
[2] = pH 4.0, British pharmacopoeia buffer solution (1998)
[3] = pH 6.8, 2nd solution of disintegrating-test in Korea pharmacopoeia
[4] = pH 7.8, phosphate buffer solution (Amaryl release solution)

Log K [1]: 0.186
Rate constant (K) [1]: 1.534
T50% (time taken for 50% disintegration of the drug, 0.693/K) [1]: 0.45
Log K [2]: −0.472
Rate constant (K) [2]: 0.337
T50% (time taken for 50% disintegration of the drug, 0.693/K) [2]: 2.06
Log K [3]: −0.900
Rate constant (K) [3]: 0.126
T50% (time taken for 50% disintegration of the drug, 0.693/K) [3]: 5.50
Log K [4]: −1.187
Rate constant (K) [4]: 0.065
T50% (time taken for 50% disintegration of the drug, 0.693/K) [4]: 10.66
Log K (pH 10.0, Meglumin 1% solution): −2.721
Rate constant (K) (pH 10.0, Meglumin 1% solution): 0.002
T50% (time taken for 50% disintegration of the drug, 0.693/K) (pH 10.0, Meglumin 1% solution): 346.50
stability of glimepiride as function of the solution pH (solution containing meglumin, judged by lowest K value, FIG. 9): most stable
SMILES: CCC1=C(C)CN(C(=O)NCCc2ccc(S(=O)(=O)NC(=O)N[C@H]3CC[C@H](C)CC3)cc2)C1=O [glimepiride]
